Reference: paper PMC11576293, “New series of 4,6-diaryl pyrimidines: facile synthesis and antiproliferative activity as dual EGFR/VEGFR-2 inhibitors” (Frontiers in Chemistry, 2024)

Assays:
[1] = Cell viability assay (MTT) on normal cells; type: cell-based; details: human, MCF-10A normal mammary gland epithelial cells, 4 days incubation
Experimental: (§1) This experiment examines the impact of the newly developed compounds 9–29 on normal cell lines to assess their safety level. The vitality of the investigated compounds was assessed using the MCF-10 A cell line, a normal human mammary gland epithelial cell line. Following 4 days of incubation on MCF-10 A cells with each examined compound at a concentration of 50 μM, the vitality of the cells was assessed using the MTT test ([Mahmoud et al., 2022]; [Mekheimer et al., 2022]).
as §1, with “The viability” for “The vitality”, “of 9–29” for “of the investigated compounds”, “2022]). Refer to Supplementary Material A1 for more details. […]” for “2022]).”
4.2. Biological evaluation
4.2.1. Cytotoxic activity using MTT Assay and evaluation of IC50
MTT assay was carried out to study the effect of compounds on mammary epithelial cells (MCF-10A). The medium in which cells were propagated contained Dulbecco's modified Eagle's medium (DMEM)/ Ham's F-12 medium (1:1) supplemented with epidermal growth factor (20 ng/mL), hydrocortisone (500 ng/mL), insulin (10 μg/mL), 2 mM glutamine and 10% foetal calf serum.
After every 2-3 days, the cells were passaged using trypsin ethylenediamine tetra acetic acid (EDTA). The cells were seeded at a density of 10^4 cells mL-1 in flat-bottomed culture plates containing 96 wells each. After 24 h, medium was removed from the plates and the compounds in (in 0.1% DMSO) were added (in 200 μL medium to yield a final concentration of 0.1% v/v) to the wells of plates. A single compound was designated with four wells followed by incubation of plates for 96h at 37°C. After incubation, medium was removed completely from the plates followed by addition of MTT (0.4 mg/mL in medium) to each well and subsequent incubation of plates for 3h. MTT (along with the medium) was removed and DMSO (150μL) was added to each well of the culture plates, followed by vertexing and subsequent measurement of absorbance (at 540 nm) using microplate reader. The data are shown as percentage inhibition of proliferation in comparison with controls containing 0.1% DMSO. […]

HT-29 = assay: Antiproliferative assay (MTT); type: cell-based; details: Homo sapiens, HT-29 (colon), read-out: Antiproliferative activity IC50 ± SEM, HT-29
Excerpt: (§2) The MTT test was employed for this investigation ([Hisham et al., 2022]; [El-Sherief et al., 2019]; [Ramadan et al., 2020]). Table 2 presents the four cancer cell lines’ median inhibitory concentration (IC50) and GI50 (average IC50) values.
(§3) The MTT test was employed for this investigation ([Hisham et al., 2022]; [El-Sherief et al., 2019]; [Ramadan et al., 2020]). The IC50 values were derived from dose-response tests. The reported data are derived from at least two independent studies, each comprising three replicates per concentration. See Supplementary Material A1 for more details.
(§4) (in 0.1% DMSO) were added (in 200 μL medium to yield a final concentration of 0.1% v/v) to the wells of plates. A single compound was designated with four wells followed by incubation of plates for 96h at 37°C. After incubation, medium was removed completely from the plates followed by addition of MTT (0.4 mg/mL in medium) to each well and subsequent incubation of plates for 3h. MTT (along with the medium) was removed and DMSO (150μL) was added to each well of the culture plates, followed by vertexing and subsequent measurement of absorbance (at 540 nm) using microplate reader. The data are shown as percentage inhibition of proliferation in comparison with controls containing 0.1% DMSO.
(§5) 4.2.1.2. Assay for antiproliferative effect […]
(§6) (10%) and 1 µg/mL each of aprotinin, leupeptin and pepstatin for 120 min. The purification was performed either at 4 °C or on ice. To record autophosphorylation level, EGFR kinase assay was carried out on the basis of DELFIA/Time-Resolved Fluorometry. The compounds were first
(§7) (1 picture or pasted object on this page, not shown here)

MCF-7 = assay: Antiproliferative assay (MTT); type: cell-based; details: Homo sapiens, MCF7, MCF-7 (breast), read-out: Antiproliferative activity IC50 ± SEM, MCF-7
Excerpt: as §2, §3, §4, §5, §6, §7

Panc-1 = assay: Antiproliferative assay (MTT); type: cell-based; details: Homo sapiens, Panc-1 (pancreatic), read-out: Antiproliferative activity IC50 ± SEM, Panc-1
Excerpt: as §2, §3, §4, §5, §6, §7

A-549 = assay: Antiproliferative assay (MTT); type: cell-based; details: Homo sapiens, A549, A-549 (lung), read-out: Antiproliferative activity IC50 ± SEM, A-549
Excerpt: as §2, §3, §4, §5, §6, §7

HT29 = assay: NCI-60 single-dose screen; type: cell-based; details: Homo sapiens, HT-29, single dose 10 µM, '-' = no inhibition, read-out: % Growth Inhibition
Experimental: (§8) The National Cancer Institute’s Developmental Therapeutic Program (www.dtp.nci.nih.gov) has tested compounds 9–29 (except compounds 21 and 22) against 60 cancer cell lines from nine types (leukemia, lung, colon, CNS, melanoma, ovarian, renal, prostate, and breast cancer) at a single dose (10 μM) ([El-Sherief et al., 2018]). […] The most sensitive cells included leukemia (SR, K-562, and MOLT-4), lung (NCI-H522, […], and EKVX), breast (MCF-7 and T-47D), colon (HCT-15 and HT-29), and ovarian (NCI/ADR-RES).
(§9) The National Cancer Institute’s Developmental Therapeutic Program (www.dtp.nci.nih.gov) evaluated compounds 9–29 (excluding 21 and 22) against 60 cancer cell lines from nine categories (leukemia, lung, colon, CNS, melanoma, ovarian, renal, prostate, and breast cancer) at a single dose (10 μM) ([El-Sherief et al., 2018]). See Supplementary Material A1 for more details.

OVCAR-8 = assay: NCI-60 single-dose screen; type: cell-based; details: Homo sapiens, single dose 10 µM, '-' = no inhibition, read-out: % Growth Inhibition
Experimental: as §8, §9

MOLT-4 = assay: NCI-60 single-dose screen; type: cell-based; details: Homo sapiens, single dose 10 µM, '-' = no inhibition, read-out: % Growth Inhibition
Experimental: as §8, §9

BT-549 = assay: NCI-60 single-dose screen; type: cell-based; details: Homo sapiens, single dose 10 µM, '-' = no inhibition, read-out: % Growth Inhibition
Experimental: as §8, §9

[2] = test system: four cancer cell lines (A-549, MCF-7, Panc-1, HT-29); assay: Antiproliferative assay, average over four cancer cell lines; type: cell-based; details: Homo sapiens; average of the four cancer cell lines; read-out: Average IC50 (GI50)
Excerpt: Table 2 presents the four cancer cell lines’ median inhibitory concentration (IC50) and GI50 (average IC50) values.
The IC50 values were derived from dose-response tests. The reported data are derived from at least two independent studies, each comprising three replicates per concentration. See Supplementary Material A1 for more details.

Compound | melting point | viability at 4 days, 50 µM [1] | IC50 (HT-29) | IC50 (MCF-7) | IC50 (Panc-1) | IC50 (A-549) | inhibition at 10 µM (HT29) | inhibition at 10 µM (OVCAR-8) | inhibition at 10 µM (MOLT-4) | inhibition at 10 µM (BT-549) | IC50 [2]
COc1ccc(-c2cc(-c3ccc(Cl)cc3)nc(SC)n2)cc1 [Compound 9, 4-(4-Chlorophenyl)-6-(4-methoxyphenyl)-2-(methylthio)pyrimidine] | 220 to 221 °C | 91% | 62 ± 6 nM | 65 ± 6 nM | 62 ± 6 nM | 60 ± 5 nM | 15.6% | 11% | 11.7% | < 0% | 62 nM
CCSc1nc(-c2ccc(Cl)cc2)cc(-c2ccc(OC)cc2)n1 [Compound 10, 4-(4-Chlorophenyl)-2-(ethylthio)-6-(4-methoxyphenyl)pyrimidine] | 230 to 231 °C | 90% | 74 ± 7 nM | 79 ± 7 nM | 76 ± 7 nM | 75 ± 7 nM | 9.13% | < 0% | 2.95% | < 0% | 76 nM
CCCSc1nc(-c2ccc(Cl)cc2)cc(-c2ccc(OC)cc2)n1 [Compound 11, 4-(4-Chlorophenyl)-6-(4-methoxyphenyl)-2-(propylthio)pyrimidine] | 228 to 230 °C | 89% | 53 ± 5 nM | 55 ± 5 nM | 54 ± 5 nM | 52 ± 5 nM | 10.7% | 2.49% | 2.06% | < 0% | 54 nM
COc1ccc(-c2cc(-c3ccc(Cl)cc3)nc(SC(C)C)n2)cc1 [Compound 12, 4-(4-Chlorophenyl)-2-(isopropylthio)-6-(4-methoxyphenyl)pyrimidine] | 198 to 201 °C | 89% | 36 ± 3 nM | 37 ± 3 nM | 36 ± 3 nM | 35 ± 3 nM | 29.2% | 11.3% | 29.9% | 2.74% | 36 nM
C=CCSc1nc(-c2ccc(Cl)cc2)cc(-c2ccc(OC)cc2)n1 [Compound 13, 2-(Allylthio)-4-(4-chlorophenyl)-6-(4-methoxyphenyl)pyrimidine] | 245 to 247 °C | 90% | 64 ± 6 nM | 68 ± 6 nM | 66 ± 6 nM | 64 ± 6 nM | 17.2% | < 0% | 14.3% | < 0% | 66 nM
COc1ccc(-c2cc(-c3ccc(Cl)cc3)nc(SCc3ccccc3)n2)cc1 [Compound 14, 2-(Benzylthio)-4-(4-chlorophenyl)-6-(4-methoxyphenyl)pyrimidine] | 288 to 290 °C | 90% | 28 ± 2 nM | 30 ± 2 nM | 29 ± 2 nM | 28 ± 2 nM | 8.96% | < 0% | 4.54% | < 0% | 29 nM
COc1ccc(CSc2nc(-c3ccc(Cl)cc3)cc(-c3ccc(OC)cc3)n2)cc1 [Compound 15, 2-(4-Methoxybenzylthio)-4-(4-chlorophenyl)-6-(4-methoxyphenyl)pyrimidine] | 278 to 280 °C | 91% | 80 ± 7 nM | 82 ± 7 nM | 80 ± 7 nM | 79 ± 7 nM | 4.35% | 1.69% | 3.03% | < 0% | 80 nM
COc1ccc(-c2cc(-c3cccc(OC)c3)nc(SC)n2)cc1 [Compound 16, 6-(3-Methoxyphenyl)-4-(4-methoxyphenyl)-2-(methylthio)pyrimidine] | 213 to 215 °C | 92% | 85 ± 8 nM | 89 ± 8 nM | 85 ± 8 nM | 86 ± 7 nM | 26.2% | 6.48% | 19.9% | 3.3% | 86 nM
CCSc1nc(-c2ccc(OC)cc2)cc(-c2cccc(OC)c2)n1 [Compound 17, 2-(Ethylthio)-6-(3-methoxyphenyl)-4-(4-methoxyphenyl)pyrimidine] | 221 to 222 °C | 90% | 29 ± 2 nM | 30 ± 3 nM | 28 ± 2 nM | 28 ± 2 nM | < 0% | < 0% | 4.56% | < 0% | 29 nM
CCCSc1nc(-c2ccc(OC)cc2)cc(-c2cccc(OC)c2)n1 [Compound 18, 6-(3-Methoxyphenyl)-4-(4-methoxyphenyl)-2-(propylthio)pyrimidine] | 218 to 220 °C | 87% | 46 ± 4 nM | 46 ± 4 nM | 44 ± 4 nM | 45 ± 4 nM | 4.83% | < 0% | 6.49% | < 0% | 45 nM
COc1ccc(CSc2nc(-c3ccc(OC)cc3)cc(-c3cccc(OC)c3)n2)cc1 [Compound 22, 2-(4-Methoxybenzylthio)-6-(3-methoxyphenyl)-4-(4-methoxyphenyl)pyrimidine] | – | 89% | 23 ± 2 nM | 23 ± 2 nM | 22 ± 2 nM | 21 ± 2 nM | – | – | – | – | 22 nM
